Experimental data from patent US20230303495A9, “PYRIDINE OXYNITRIDE, PREPARATION METHOD THEREFOR AND USE THEREOF” (Orion Corporation, priority 2019, published 2023).

These compounds were tested against T1, NaV1.8 (Homo sapiens, UniProt Q9Y5Y9) (assay: Whole-cell patch clamp blocking activity against NaV1.8 channel current). Conditions: CHO cell line stably expressing Nav1.8 (SCN10A: NM_006514), patch clamp.
T1 construct: expressed in transfected cells
Format: cell-based
Experimental: 1. Test method: patch clamp technique was used to detect the influence of compounds on voltage-gated sodium channel (NaV) 1.1-1.8 subtype current
1) The specific information of the CHO cell line stably expressing the Nav1.8 channel was as follows: SCN10A: NM_006514
2) Cells were cultured in HAM'S/F-12 medium containing 10% fetal bovine serum and 10 μg/mL Blasticidin, 200 μg/mL Hygromycin B and 100 μg/mL Zeocin, culture temperature was 37° C. and the concentration of CO2 was 5%.
5) Patch clamp detection, before the experiment, the cells were separated with 0.25%—trypsin EDTA, inoculated into a 24 well plate with a density of 8*10^3 cells per well (final volume: 500 μL), tetracycline was added thereto, and experimental test was performed on the next day.
1) Extracellular fluid: 140 mM NaCl, 3.5 mM KCl, 2 mM CaCl2, 10 mM HEPES, 1.25 mM NaH2PO4, 1 mM MgCl2, 10 mM Glucose, pH=7.4 (NaOH).
2) Intracellular fluid: 50 mM CsCl, 10 mM NaCl, 10 mM HEPES, 20 mM EGTA, 60 mM CsF, pH=7.2 (CsOH).
The voltage stimulation scheme of whole-cell patch clamp recording of Nav channel current was as follows: first the membrane potential of the cell was clamped at −130 mV, and then the voltage was stepped to −40 mV or −20 mV at 10 mv step intervals for 8 s. The clamping voltage was maintained at −120 mV, and data was collected repeatedly every 20 seconds. The peak amplitude of its inward current was measured to determine its half-inactivation voltage.
The cell clamping potential was set at −120 mV. The resting and half-inactivation inhibition of sodium current was measured using double pulse mode. The double pulse mode was completed by two 0 mV depolarization test pulses (TP1 and TP2) lasting 50 ms. The conditional voltage between the two depolarization pulses was set near the half-inactivation voltage (lasting 8 s). […] The data acquisition was repeated at an interval of 20 s and the current peak was measured at the two test pulses.
When the current of the Nav channel recorded by the whole cell was stable, the drug was administered, after each drug concentration was applied for 5 minutes (or the current was stable), the next concentration would be tested, and multiple concentrations would be tested for each test compound. The cover glass covered with cells was placed in the recording bath of an inverted microscope, the test compound and the external liquid without compound flowed through the recording chambers in turns from low concentration to high concentration by gravity perfusion, so as to act on the cells, in the recording, the liquid exchange was carried out by vacuum pump. The current detected in each cell in the compound-free external fluid served as its own control group. Multiple cells were detected independently and repeatedly. All electrophysiological experiments were performed at room temperature.
First, the current after the action of each drug concentration and the blank control current were normalized, and then the blocking rate corresponding to each drug concentration was calculated. The mean and standard error were calculated for each concentration, and all the above values were calculated by Microsoft Excel 2013. In addition, the half-inhibitory concentration of each compound was calculated by IGOR software with the following equation: retardation rate=1/[1+(IC50/c)^h].
The dose-dependent effect was nonlinearly fitted with the above equation, wherein, c refers to the drug concentration, IC50 was the half inhibitory concentration, and h refers to the Hill coefficient. The curve fitting and the calculation of IC50 were completed by IGOR software (software version: 6.0.1.0).

T1 sequence (Q9Y5Y9 whole entry): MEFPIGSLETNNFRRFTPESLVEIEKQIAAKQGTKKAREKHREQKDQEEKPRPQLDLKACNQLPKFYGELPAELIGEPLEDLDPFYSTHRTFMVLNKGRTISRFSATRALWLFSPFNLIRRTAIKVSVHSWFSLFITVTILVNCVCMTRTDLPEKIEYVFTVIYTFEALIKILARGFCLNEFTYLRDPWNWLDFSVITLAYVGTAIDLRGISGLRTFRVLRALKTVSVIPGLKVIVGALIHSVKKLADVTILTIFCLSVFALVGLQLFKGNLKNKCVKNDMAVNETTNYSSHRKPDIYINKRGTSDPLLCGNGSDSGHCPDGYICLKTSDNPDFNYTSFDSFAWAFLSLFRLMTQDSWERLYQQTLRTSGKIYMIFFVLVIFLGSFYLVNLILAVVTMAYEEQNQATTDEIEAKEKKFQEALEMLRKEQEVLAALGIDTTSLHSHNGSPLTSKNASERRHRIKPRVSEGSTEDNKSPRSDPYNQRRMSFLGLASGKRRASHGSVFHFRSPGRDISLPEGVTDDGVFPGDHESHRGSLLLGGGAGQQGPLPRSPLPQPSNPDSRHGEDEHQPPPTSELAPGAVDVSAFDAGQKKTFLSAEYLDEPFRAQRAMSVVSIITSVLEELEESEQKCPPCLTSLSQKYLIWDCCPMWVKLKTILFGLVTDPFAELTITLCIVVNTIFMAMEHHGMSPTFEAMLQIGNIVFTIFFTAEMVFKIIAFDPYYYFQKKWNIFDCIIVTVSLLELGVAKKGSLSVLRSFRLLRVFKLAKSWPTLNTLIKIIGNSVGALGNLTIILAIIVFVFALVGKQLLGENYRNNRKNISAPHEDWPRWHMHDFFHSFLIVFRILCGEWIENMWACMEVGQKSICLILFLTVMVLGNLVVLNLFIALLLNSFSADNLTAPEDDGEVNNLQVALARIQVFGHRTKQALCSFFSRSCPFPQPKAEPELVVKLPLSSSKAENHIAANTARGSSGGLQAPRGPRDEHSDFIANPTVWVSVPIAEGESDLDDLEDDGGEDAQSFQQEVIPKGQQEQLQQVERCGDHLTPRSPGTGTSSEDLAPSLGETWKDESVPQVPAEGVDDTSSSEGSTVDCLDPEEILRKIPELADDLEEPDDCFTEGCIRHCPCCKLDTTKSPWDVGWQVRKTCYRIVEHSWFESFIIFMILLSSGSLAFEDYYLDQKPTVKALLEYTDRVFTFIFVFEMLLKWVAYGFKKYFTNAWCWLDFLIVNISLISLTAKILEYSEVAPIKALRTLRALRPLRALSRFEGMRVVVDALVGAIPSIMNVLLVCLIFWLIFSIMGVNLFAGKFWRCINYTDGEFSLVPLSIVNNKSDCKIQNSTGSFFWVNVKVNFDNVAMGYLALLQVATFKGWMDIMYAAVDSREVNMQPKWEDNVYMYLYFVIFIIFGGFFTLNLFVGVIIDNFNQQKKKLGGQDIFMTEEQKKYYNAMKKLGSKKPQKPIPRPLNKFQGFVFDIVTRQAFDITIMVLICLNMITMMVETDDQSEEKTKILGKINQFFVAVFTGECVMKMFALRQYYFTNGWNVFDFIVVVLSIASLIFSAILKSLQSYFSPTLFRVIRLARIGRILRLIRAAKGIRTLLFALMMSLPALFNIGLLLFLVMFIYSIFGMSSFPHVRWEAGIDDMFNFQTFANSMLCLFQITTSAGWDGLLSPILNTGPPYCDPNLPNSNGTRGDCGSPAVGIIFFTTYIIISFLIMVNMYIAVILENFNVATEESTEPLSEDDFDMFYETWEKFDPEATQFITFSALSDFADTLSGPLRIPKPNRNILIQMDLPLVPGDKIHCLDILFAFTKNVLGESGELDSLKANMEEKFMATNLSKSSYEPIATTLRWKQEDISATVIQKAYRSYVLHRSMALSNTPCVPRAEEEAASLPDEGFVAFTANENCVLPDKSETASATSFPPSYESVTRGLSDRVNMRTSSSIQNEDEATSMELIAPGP

Compound	IC50
O=C(Nc1cc[n+]([O-])nc1)c1cc(Cl)c(Cl)cc1Oc1ccc(OC(F)(F)F)cc1 [Embodiment A35]	3 nM
O=C(Nc1ccc[n+]([O-])c1)c1c(Oc2ccc(OC(F)(F)F)cc2)cc(Cl)c(Cl)c1F [Embodiment A22]	0.32 nM
COc1cc(F)ccc1Oc1cc(C(F)(F)F)c(Cl)cc1C(=O)Nc1ccc[n+]([O-])c1 [Embodiment A85]	1.7 nM
O=C(Nc1cc[n+]([O-])nc1)c1cc(Cl)c(Cl)cc1Oc1ccc(OC(F)(F)F)c(F)c1 [Embodiment A37]	3.2 nM
O=C(Nc1cc[n+]([O-])nc1)c1c(Oc2ccc(OC(F)(F)F)cc2)ccc(Br)c1F [Embodiment A33]	4.6 nM
O=C(Nc1ccn[n+]([O-])c1)c1cc(Cl)c(Cl)cc1Oc1ccc(OC(F)(F)F)c(F)c1 [Embodiment A38]	7.3 nM
COc1cc(F)ccc1Oc1cc(Cl)c(Cl)cc1C(=O)Nc1ccc[n+]([O-])c1 [Embodiment A5]	7.4 nM
O=C(Nc1cc[n+]([O-])nc1)c1c(Oc2ccc(OC(F)(F)F)cc2)ccc(C(F)(F)F)c1Cl [Embodiment A27]	0.64 nM
COc1cc(F)ccc1Oc1cc(C(F)(F)F)c(Cl)c(F)c1C(=O)Nc1ccc[n+]([O-])c1 [Embodiment A86]	0.08 nM
O=C(Nc1ccn[n+]([O-])c1)c1c(Oc2ccc(OC(F)(F)F)cc2)ccc(C(F)(F)F)c1Cl [Embodiment A28]	2.9 nM
O=C(Nc1ccc[n+](O)c1)c1c(Oc2ccc(OC(F)(F)F)cc2)ccc(C(F)(F)F)c1Cl [Embodiment A57]	1.8 nM
O=C(Nc1ccc[n+](O)c1)c1c(Oc2ccc(OC(F)(F)F)cc2)ccc(C(F)(F)F)c1F [Embodiment A42]	3.6 nM
O=C(Nc1cc[n+]([O-])nc1)c1c(Oc2ccc(OC(F)(F)F)cc2)cnc(C(F)(F)F)c1F [Embodiment A61]	10.2 nM
O=C(Nc1cc[n+]([O-])nc1)c1c(F)cc(C(F)(F)F)cc1Oc1ccc(OC(F)(F)F)cc1 [Embodiment A80]	8.4 nM
O=C(Nc1ccc[n+]([O-])c1)c1c(Oc2ccc(OC(F)(F)F)cc2)ccc(I)c1F [Embodiment A73]	3.2 nM
O=C(Nc1ccc[n+](O)c1)c1c(Oc2ccc(OC(F)(F)F)cc2)ccc(OC(F)(F)F)c1F [Embodiment A19]	10 nM

Same assay, conditions: against NaV1.8 at 100 nM, CHO cell line stably expressing Nav1.8, patch clamp

Compound	Blocking rate (%) @100 nM
Cc1cc(Oc2ccc(OC(F)(F)F)cc2)c(C(=O)Nc2ccc[n+]([O-])c2)cc1Cl [Embodiment A92]	85.44%
O=C(Nc1ccc[n+]([O-])c1)c1c(Oc2ccc(OC(F)(F)F)cc2F)ccc(C(F)(F)F)c1F [Embodiment A52]	80.75%
Cc1cc(Oc2ccc(OC(F)(F)F)cc2)c(C(=O)Nc2ccc[n+]([O-])c2)cc1C(F)(F)F [Embodiment A90]	89.50%
O=C(Nc1cc[n+]([O-])nc1)c1ccc(C(F)(F)F)cc1Oc1ccc(OC(F)(F)F)c(F)c1 [Embodiment A26]	79.32%
COc1cc(Oc2ccc(OC(F)(F)F)cc2)c(C(=O)Nc2ccc[n+]([O-])c2)c(F)c1C(F)(F)F [Embodiment A78]	96.55%
O=C(Nc1ccc[n+](O)c1)c1c(Oc2ccc(OC(F)(F)F)c(F)c2)cnc(C(F)(F)F)c1F [Embodiment A62]	89.79%
O=C(Nc1cc[n+]([O-])nc1)c1c(Oc2ccc(OC(F)(F)F)cc2)cnc(C(F)(F)F)c1Cl [Embodiment A65]	93.18%
O=C(Nc1cc[n+]([O-])cc1)c1c(Oc2ccc(OC(F)(F)F)cc2)cc(Cl)c(Cl)c1F [Embodiment A100]	97.60%
Cc1cc(F)ccc1Oc1cc(C(F)(F)F)c(Cl)c(F)c1C(=O)Nc1ccc[n+]([O-])c1 [Embodiment A104]	97.93%
O=C(Nc1ccc[n+](O)c1)c1c(F)cc(OC(F)(F)F)cc1Oc1ccc(OC(F)(F)F)cc1 [Embodiment A20]	87.14%
O=C(Nc1ccc[n+]([O-])c1)c1cc(Cl)c(Br)cc1Oc1ccc(OC(F)(F)F)cc1 [Embodiment A96]	88.78%
Cc1cc(F)ccc1Oc1cc(C(F)(F)F)c(Br)cc1C(=O)Nc1ccc[n+]([O-])c1 [Embodiment A107]	95.60%
O=C(Nc1ccc[n+]([O-])c1)c1c(Oc2ccc(OC(F)(F)F)cc2)cnc(C(F)(F)F)c1Cl [Embodiment A63]	93.13%
O=C(Nc1ccc[n+](O)c1)c1c(Oc2ccc(OC(F)(F)F)cc2Cl)ccc(C(F)(F)F)c1F [Embodiment A54]	94.99%
O=C(Nc1ccn[n+]([O-])c1)c1c(Oc2ccc(OC(F)(F)F)cc2)ccc(I)c1F [Embodiment A24]	91.28%
O=C(Nc1cc[n+]([O-])c(Cl)c1)c1c(Oc2ccc(OC(F)(F)F)cc2)ccc(C(F)(F)F)c1F [Embodiment A43]	76.10%
O=C(Nc1cc[n+]([O-])nc1)c1c(Oc2ccc(OC(F)(F)F)c(F)c2)cnc(C(F)(F)F)c1F [Embodiment A83]	84.98%
O=C(Nc1ccc[n+]([O-])c1)c1c(Oc2ccc(OC(F)(F)F)cc2)cc(Cl)c(C(F)(F)F)c1F [Embodiment A40]	99.91%

Compound	Blocking rate (%) @100 nM
O=C(Nc1ccc[n+]([O-])c1)c1cc(Cl)c(OC(F)(F)F)cc1Oc1ccc(OC(F)(F)F)cc1 [Embodiment A91]	92.81%
Cc1cc(F)ccc1Oc1cc(C(F)(F)F)c(Br)c(F)c1C(=O)Nc1ccc[n+]([O-])c1 [Embodiment A110]	98.75%
O=C(Nc1ccn[n+]([O-])c1)c1c(Oc2ccc(OC(F)(F)F)cc2)ccc(C(F)(F)F)c1F [Embodiment A45]	78.46%
O=C(Nc1ccc[n+](O)c1)c1c(Oc2ccc(OCC(F)(F)F)cc2)ccc(C(F)(F)F)c1F [Embodiment A53]	85.77%
O=C(Nc1ccc[n+]([O-])c1)c1c(Oc2ccc(OC(F)F)cc2)ccc(C(F)(F)F)c1F [Embodiment A16]	85.08%
O=C(Nc1ccc[n+]([O-])c1)c1c(Oc2ccc(OC(F)(F)F)cc2)ccc(CC2CC2)c1F [Embodiment A98]	95.70%
O=C(Nc1cc[n+]([O-])cc1)c1c(Oc2ccc(OC(F)(F)F)cc2)ccc(C(F)(F)F)c1F [Embodiment A44]	77.61%
O=C(Nc1ccc[n+]([O-])c1)c1c(Oc2ccc(OCC(F)(F)F)cc2)ccc(Br)c1Cl [Embodiment A31]	88.88%
O=C(Nc1ccc[n+]([O-])c1)c1cc(Cl)c(C2CC2)cc1Oc1ccc(OC(F)(F)F)cc1 [Embodiment A95]	93.84%
O=C(Nc1ccc[n+]([O-])c1)c1cc(Cl)c(C(F)(F)F)cc1Oc1ccc(F)cc1OC1CC1 [Embodiment A108]	96.92%
O=C(Nc1ccc[n+]([O-])c1)c1c(Oc2ccc(OC(F)(F)F)cc2)ccc(Cl)c1F [Embodiment A75]	88.87%
O=C(Nc1ccc[n+](O)c1)c1c(Oc2ccc(OC(F)(F)F)c(F)c2)cc(Cl)c(Cl)c1F [Embodiment A21]	98.02%
O=C(Nc1ccc[n+]([O-])c1)c1c(Oc2ccc(OC(F)(F)F)cc2)ccc(C(F)(F)C(F)(F)F)c1F [Embodiment A18]	96.02%
O=C(Nc1cc[n+]([O-])cc1)c1c(Oc2ccc(OC(F)(F)F)cc2)cnc(C(F)(F)F)c1Cl [Embodiment A102]	82.71%
O=C(Nc1ccc[n+]([O-])c1)c1cc(C(F)(F)F)c(C2CC2)cc1Oc1ccc(OC(F)(F)F)cc1 [Embodiment A97]	86.65%
O=C(Nc1ccn[n+]([O-])c1)c1c(Oc2ccc(OC(F)(F)F)cc2)ccc(Br)c1F [Embodiment A34]	90.16%
O=C(Nc1ccn[n+]([O-])c1)c1cc(Cl)c(Cl)cc1Oc1ccc(OC(F)(F)F)cc1 [Embodiment A36]	87.40%
